According to patent publication US11084795B2, “CFTR regulators and methods of use thereof” (The Regents of the University of California, priority 2015, dated 2021):
Entries after “also recorded” stand apart in the source; their conditions may differ.

Experiments:
[1] = system: intestinal fluid absorption; test: Closed mid-jejunal loop model of intestinal fluid absorption in cystic fibrosis mice; assay type: in vivo, mouse; details: 30 min
Experimental: (§1) Mice (wildtype or CF) were given access to 5% dextrose water but not solid food for 24 h before experiments. Mice were anesthetized with isoflurane and body temperature was maintained during surgery at 36-38° C. using a heating pad. A small abdominal incision was made to expose the small intestine, and closed mid-jejunal loops (length 2-3 cm) were isolated by sutures. Loops were injected with 100 μL vehicle alone or 100 μg CFTRact-J027 in vehicle. The abdominal incision was closed with sutures, and mice were allowed to recover from anesthesia. Intestinal loops were removed at 90 min and loop length and weight were measured to quantify fluid secretion. Intestinal absorption was measured in CF mice (to prevent secretion) as described above, except that the loops were removed at 0 or 30 min. Absorption was calculated as 1−(loop weight at 0 min−loop weight at 30 min)/loop weight at 0 min.
In vivo intestinal secretion and absorption. Mice (wildtype or CF) were given access to 5% dextrose water but not solid food for 24 h before experiments. […] Intestinal loops were removed at 90 min and loop length and weight were measured to quantify fluid secretion. Intestinal absorption was measured in CF mice (to prevent secretion) as described above, except that the loops were removed at 0 or 30 min. Absorption was calculated as 1−(loop weight at 0 min−loop weight at 30 min)/loop weight at 0 min.

[2] = Pharmacokinetics in mice (plasma LC/MS); assay type: in vivo, mouse
Experimental: (§2) Blood was collected at 15, 30, 60, 150, 240 and 360 min after treatment by orbital puncture and centrifuged at 5000 rpm for 15 min to separate plasma. Plasma samples (60 μL) were mixed with 300 μL acetonitrile and centrifuged at 13000 rpm for 20 min, and 90 μL of the supernatant was used for LC/MS. The solvent system consisted of a linear gradient from 5 to 95% acetonitrile over 16 min (0.2 ml/min flow). Mass spectra was acquired on a mass spectrometer (Waters 2695 and Micromass ZQ) using electrospray (+) ionization, mass ranging from 100 to 1500 Da, cone voltage 40 V. Calibration standards were prepared in plasma from untreated mice to which known amounts of CFTRact-J027 were added.
as §2, with “Pharmacokinetics. […] Blood” for “Blood”

[3] = system: intestinal fluid secretion; test: Closed mid-jejunal loop model of intestinal fluid secretion; assay type: in vivo, mouse; details: 90 min
Experimental: as §1
In vivo intestinal secretion and absorption. Mice (wildtype or CF) were given access to 5% dextrose water but not solid food for 24 h before experiments. […] Intestinal loops were removed at 90 min and loop length and weight were measured to quantify fluid secretion. Intestinal absorption was measured in CF mice (to prevent secretion) as described above, except that the loops were removed at 0 or 30 min. Absorption was calculated as 1−(loop weight at 0 min−loop weight at 30 min)/loop weight at 0 min. […]

[4] = system: cellular cAMP; test: GloSensor cAMP assay in FRT cells; assay type: cell-based, rat; details: 5 μM compound, 10 min, without or with 100 nM forskolin
Experimental: Intracellular cAMP activity was measured using a GloSensor luminescence assay (Promega Corp., Madison, Wisconson, USA). FRT null cells were stably transfected with the pGloSensor cAMP plasmid and plated onto white 96-well microplates and grown to confluence. Cells were washed three times with PBS and incubated with 5 μM CFTRact-J027 for 10 min in the absence and presence of 100 nM forskolin. cAMP was assayed according to the manufacturer's instructions.
Intracellular cAMP activity was measured using a GloSensor luminescence assay (Promega Corp., Madison, Wis., USA). FRT cells stably transfected with the pGloSensor cAMP plasmid (Promega Corp.) were cultured in white 96-well microplates (Corning Costar) overnight. Cells were then washed three times with PBS and incubated with 5 μM test compound for 10 min in the absence and presence of 100 nM forskolin.
cAMP assay. Intracellular cAMP activity was measured using a GloSensor luminescence assay (Promega Corp., Madison, Wisconson, USA). FRT null cells were stably transfected with the pGloSensor cAMP plasmid and plated onto white 96-well microplates and grown to confluence. […]
cAMP and cytotoxicity assays. Intracellular cAMP activity was measured using a GloSensor luminescence assay (Promega Corp., Madison, Wis., USA). […]

[5] = 7-day oral administration toxicity study in mice; assay type: in vivo, mouse
Excerpt: Chronic administration and toxicity studies.

[6] = 10 mg/kg orally once per day, 7 days, mean

What does the source list for `Nc1ccc([N+](=O)[O-])cc1-c1nc2ccccc2n(Cc2ccccc2)c1=O` [CFTRact-J027, 3-(2-amino-5-nitrophenyl)-1-benzylquinoxalin-2(1H)-one]?
intestinal fluid absorption [1]: did not affect intestinal fluid absorption; serum concentration at 150 min ([2]; 10 mg/kg ip): undetectable; oral bioavailability ([2]; 10 mg/kg oral): very low bioavailability; also recorded: minimal bioavailability; serum concentration at other time points ([2]; 10 mg/kg oral): undetectable; half-life ([2]; female, CD1, mouse, serum, 10 mg/kg ip, read-out: serum elimination half-life): 16 min; concentration at 30 min ([2]; female, CD1, mouse, serum, 10 mg/kg oral): 180 nM; intestinal fluid accumulation compared to equal doses of lubiprostone or linaclotide ([3]; 100 μg per loop): Significantly greater intestinal fluid accumulation; loop fluid secretion in cystic fibrosis mice ([3]; cystic fibrosis mice): without effect; effect on cellular cAMP [4]: without causing elevation of cytoplasmic cAMP; also recorded: does not elevate cellular cAMP; toxicity after chronic administration ([5]; 10 mg/kg oral): without apparent toxicity; ALP [5, 6]: 53 U/L; ALT [5, 6]: 44 U/L; AST [5, 6]: 105 U/L; Albumin [5, 6]: 2.9 g/dL; BUN [5, 6]: 18.4 mg/dL; Bicarbonate [5, 6]: 16 mmol/L; CK [5, 6]: 312 U/L; Calcium [5, 6]: 8.5 mg/dL; Chloride [5, 6]: 115 mmol/L; Cholesterol [5, 6]: 121 mg/dL; Creatinine [5, 6]: 0.2 mg/dL; Globulin [5, 6]: 2.2 g/dL; Glucose [5, 6]: 164 mg/dL; Hemoglobin [5, 6]: 12.8 g/dL; Leukocytes [5, 6]: 1.9 ± 10^3/μL; Phosphorus [5, 6]: 6.8 mg/dL; Potassium [5, 6]: 4.4 mmol/L; Sodium [5, 6]: 151 mmol/L; Thrombocytes [5, 6]: 900 ± 10^3/μL; Total bilirubin [5, 6]: 0.1 mg/dL; Total protein [5, 6]: 5.2 g/dL; lung water content ([5]; 7-day treated mice): normal lung water content; major serum chemistry and blood parameters ([5]; 7-day treated mice): did not affect the major serum chemistry and blood parameters; body weight and airway/lung fluid accumulation ([5]; 7-day treated mice, 10 mg/kg oral): nor did it change body weight or produce airway/lung fluid accumulation
